Results taken from patent US5001222A, “Des-17-histidine-calcitonin” (Rhone-Poulenc Rorer Pharmaceuticals Inc., priority 1988, dated 1991).

How the values were obtained:
[1] = literature value, Experientia 32(9), 1104-1106 (1976); cited from earlier work
[2] = tested on: serum calcium concentration; test: Biological assay of calcitonin analogs in vivo: reduction of serum calcium vs salmon calcitonin standard, 2x2 parallel line assay; design: species or system Rats; settings: standard salmon calcitonin used in the assay
Procedure: Biological Assay of Calcitonin Analogs in Vivo
The biological potency of des-17-histidine-salmon calcitonin was determined by comparing the reduction of serum calcium concentration which followed administration by graded doses of des-His^17 -SCT and synthetic salmon calcitonin standard. Rats were divided into four groups of seven animals, and each group was assigned at random to a dose of standard or test solution. Low and high doses were chosen from the linear portion of the dose-response curve. For the salmon calcitonin standard, the values were 0.7 and 2.1 ng. peptide/100 g. body weight (BW). This dose approximates 3 and 9 MU/100 g. BW. Peptides were given by subcutaneous injection (0.2 ml/100 g. BW) and blood was withdrawn 1 hour later for serum calcium determination. Sera are processed and analyzed within two hours of collection. […]. Results were analyzed by a 2×2 parallel line assay [Gaddum, J. H., J. Pharm. Pharmacol., 6, 345 (1953)]. The standard salmon calcitonin used was independently determined to contain greater than 4,000 IU/mg. des-His^17 -SCT assayed at 4250 IU/mg.

| Compound | hypocalcemic potency [1] | potency content of the standard, independently determined [2] |
| --- | --- | --- |
| (1,7-alpha-L-amino-suberic acid) eel calcitonin | about 3400 IU/mg. |  |
| CC(C)C[C@H](NC(=O)[C@H](CCCCN)NC(=O)CNC(=O)[C@H](CC(C)C)NC(=O)[C@@H](NC(=O)[C@@H]1CSSC[C@H](N)C(=O)N[C@@H](CO)C(=O)N[C@@H](CC(N)=O)C(=O)N[C@@H](CC(C)C)C(=O)N[C@@H](CO)C(=O)N[C@@H]([C@@H](C)O)C(=O)N1)C(C)C)C(=O)N[C@@H](CO)C(=O)N[C@@H](CCC(N)=O)C(=O)N[C@@H](CCC(=O)O)C(=O)N[C@@H](CC(C)C)C(=O)N[C@@H](Cc1c[nH]cn1)C(=O)N[C@@H](CCCCN)C(=O)N[C@@H](CC(C)C)C(=O)N[C@@H](CCC(N)=O)C(=O)N[C@H](C(=O)N[C@@H](Cc1ccc(O)cc1)C(=O)N1CCC[C@H]1C(=O)N[C@@H](CCCNC(=N)N)C(=O)N[C@H](C(=O)N[C@@H](CC(N)=O)C(=O)N[C@H](C(=O)NCC(=O)N[C@@H](CO)C(=O)NCC(=O)N[C@H](C(=O)N1CCC[C@H]1C(N)=O)[C@@H](C)O)[C@@H](C)O)[C@@H](C)O)[C@@H](C)O [standard salmon calcitonin, Salmon calcitonin] |  | greater than 4,000 IU/mg |
| eel calcitonin [synthetic eel calcitonin] | around 4300 IU/mg. |  |
